Reference: patent US20250154140A1 (Sunnybrook Research Institute, priority 2022, published 2025)

Tests used:
Format in all cases: biochemical
[1] = biological target: T1, FL EGFR (Homo sapiens, UniProt P00533); assay: EGFR kinase assay (ADP-Glo)
T1 construct: kinase domain of EGFR (amino acids 695-1210); purchased Promega V3831
Description: A peptide containing the kinase domain of EGFR (amino acids 695-1210) was used to assess the inhibitory potency of the inhibitors. The ADP-Glo kinase assay (Promega V9101), and the EGFR kinase enzyme (Promega V3831) were used according to the supplier's instructions. Briefly, […] reactions were assembled in wells of a 384 well plate as follows: 5 μL of the kinase reaction, 5 μL of the ADP depletion reagent, and 10 μL of the luciferase reagent. For the kinase reaction: 1 μL of the inhibitor (dissolved in DMSO) was mixed with 2 μL EGFR peptide ([…]), 1 μL of a poly Glu4Tyr1 peptide (0.2 μg/μL), 1 μL reaction buffer, and 1 μL of ATP (final concentration of 5 μM). The kinase reaction was incubated at room temperature for 1 hour. 5 μL of the ATP depletion/kinase terminating reagent was mixed into each well and incubated at room temperature for 40 minutes. 10 μL of the kinase detection reagent containing luciferase was mixed into each well and incubated at room temperature for 30 minutes for bioluminescent detection of ADP produced from the kinase reaction in step 1. Bioluminescent signal was detected in a Tecan Safire^2 with a black plug covering the excitation filter, and an empty emission filter. The integration time was increased to […] to detect enough luminescence per reading.

[2] = biological target: BAX (Homo sapiens, UniProt Q07812); assay: Liposome membrane permeabilization / dye release assay (cBID activated BAX); set-up: made in house; host or cells: Escherichia coli BL21-AI; details: 20 nM cBID and 100 nM BAX
Chain of BAX (Q07812 whole entry): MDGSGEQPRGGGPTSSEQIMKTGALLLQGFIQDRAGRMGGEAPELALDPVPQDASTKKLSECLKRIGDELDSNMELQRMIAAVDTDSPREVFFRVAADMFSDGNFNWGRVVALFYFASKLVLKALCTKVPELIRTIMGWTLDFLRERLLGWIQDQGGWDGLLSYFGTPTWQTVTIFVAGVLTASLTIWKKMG
Description: The preparation of liposomes and dye-release assays were as previously described (Kale et al., 2014). The composition of liposomes, in molar %, to make a 1 mg/mL lipid film are as follows: 48% phosphatidylcholine, 28% phosphatidylethanolamine, 10% phosphatidylinositol, 10% dioleoyl phosphatidylserine, and 4% tetraoleoyl cardiolipin. Each lipid (dissolved in chloroform) was mixed in a glass test tube. Using a steady stream of nitrogen pointed inside the test tube, the tube is rotated to create a film of lipids on the glass. The tube is filled with nitrogen and covered with parafilm. The dried lipid film is then stored at −20° C. until needed. […]
The choice of ANTS/DPX or Terbium:DPA liposomes for dye release assays was dictated by the properties of those compounds being assayed for BAX inhibitory activity, that affected the fluorescence of ANTS or Terbium.
For ANTS/DPX dye release assays: ANTS (fluorophore; excitation 355 nm, emission 520 nm) and DPX (collisional quencher) are encapsulated in reconstituted liposomes. When the membrane is permeabilized, ANTS and DPX diffuse to the outside of the liposomes, decreasing the effective concentration DPX and therefore quenching by […] is decreased and ANTS fluorescence increases. […] The plate was then read a third time to assess the fluorescence of ANTS upon full dissociation of liposomes in each well (F100). […]

[3] = system: diverse panel of 58 kinases; assay: Kinase panel (Eurofins KinaseProfiler); details: 1 uM
Description: For the kinase panel, % inhibition was measured using standardized assay conditions at the KinaseProfiler service (Eurofins Pharma Discovery Services). Compounds were sent for testing as dry powder.

T1 sequence (P00533 695-1210): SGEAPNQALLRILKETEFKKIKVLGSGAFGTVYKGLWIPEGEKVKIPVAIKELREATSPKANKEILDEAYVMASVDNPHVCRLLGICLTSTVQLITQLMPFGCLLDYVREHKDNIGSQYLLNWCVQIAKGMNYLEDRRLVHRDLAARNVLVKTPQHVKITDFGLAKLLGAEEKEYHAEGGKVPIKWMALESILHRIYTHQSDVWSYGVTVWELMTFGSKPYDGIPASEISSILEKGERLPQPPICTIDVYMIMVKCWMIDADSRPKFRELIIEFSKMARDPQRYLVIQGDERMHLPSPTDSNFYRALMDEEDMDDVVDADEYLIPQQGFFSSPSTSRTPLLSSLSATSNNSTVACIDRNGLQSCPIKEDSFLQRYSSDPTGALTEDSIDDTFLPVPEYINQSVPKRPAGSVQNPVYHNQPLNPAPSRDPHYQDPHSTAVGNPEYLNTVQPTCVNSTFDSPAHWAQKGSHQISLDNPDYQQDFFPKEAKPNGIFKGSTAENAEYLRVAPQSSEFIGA

Row | SMILES | Hill Slope ([1]; FL EGFR) | BAX inhibitory activity, cBID activated BAX mediated liposome permeabilization [2] | kinase inhibitory activity ([1]; at or below 10 uM) | activity across kinase panel (percent kinase inhibition) [3]
1 | COc1cc2ncnc(Nc3ccc(F)c(Cl)c3)c2cc1NC(=O)/C=C/CN1CCCCC1 [Dacomitinib, reference compound] | −1.3 | identified in a screen for compounds that inhibit |  | 
2 | COc1cc2ccnc(Nc3ccc(F)c(Cl)c3)c2cc1NC(=O)CCCN1CCCCC1 [Compound I-1, N-(1-((3-chloro-4-fluorophenyl)amino)-6-methoxyisoquinolin-7-yl)-4-(piperidin-1-yl)butanamide] |  | retained BAX inhibitory activity equivalent to comparative compound dacomitinib | no appreciable kinase inhibitory activity | minimal activity
